Laboratory results as given in patent US11738019B2, “Substituted heterocycles as antiviral agents” (ENANTA PHARMACEUTICALS, INC., priority 2019, dated 2023).

What was measured:
[1] = compound induced cellular toxicity in HepG2 cells (ATPlite 1Step); type: cell-based; conditions: human, three days, concentration reducing total ATP levels by 50% relative to no drug controls
Experimental: At day 3, post seeding cells are treated with ATPlite 1Step according to the manufacturer's instructions.

HBV (2.2.15 cells) = assay: HBV viral product reduction in 2.2.15 cells (qPCR / HBsAg or HBeAg ELISA); type: cell-based; conditions: Hepatitis B virus, 120 h, day 5 post treatment, concentration reducing viral product accumulation in cell lysates or supernatants by 50% relative to no drug controls
Experimental: 2.2.15 cells are passaged upon attaining confluency in DMEM/F12 media in the presence of 10% FBS, Penn/Strep, and 250 ug/mL G418. Novel compounds are 5 fold serially diluted in DMSO and added to 96 well plates containing 35,000 cells/well at a 1:200 dilution so that the final concentration of DMSO is 0.5%. On day 5, post treatment cell lysates and supernatants are harvested for analysis.
Cells are lysed using Agilent Sidestep Lysis buffer, diluted 1:100 and quantified via quantitative real time PCR. Commercially available ELISA kits are used to quantitate the viral proteins HBsAg (Alpco) or HBeAg (US Biological) by following the manufacturer's recommended protocol after diluting samples to match the linear range of their respective assays. Irrespective of readout, compound concentrations that reduce viral product accumulation in the cell lysates or supernatants by 50% relative to no drug controls (EC50) are reported; EC50 ranges are as follows: A<0.1 μM; B 0.1-1 μM; C>1 μM.

Row | Compound | CC50 at 3 days [1] [nM] | EC50 (HBV (2.2.15 cells)) [nM]
1 | CC(C)(C)[C@@H]1Cc2c(cc(Cl)c3occc23)-c2cc(=O)c(C(=O)O)cn21 [Example 1, (S)-5-(tert-butyl)-12-chloro-9-oxo-4,9-dihydro-5H-furo[3,2-f]pyrido[2,1-a]isoquinoline-8-carboxylic acid] | > 25000 | < 100
2 | CC(C)(C)[C@@H]1Cc2c(cc(Cl)c3ccoc23)-c2cc(=O)c(C(=O)O)cn21 [Example 2, (S)-5-(tert-butyl)-12-chloro-9-oxo-4,9-dihydro-5H-furo[2,3-f]pyrido[2,1-a]isoquinoline-8-carboxylic acid] | > 25000 | < 100
3 | CC(C)(C)[C@@H]1Cc2c(cc(-c3ccoc3)c3ccoc23)-c2cc(=O)c(C(=O)O)cn21 [Example 3, (S)-5-(tert-butyl)-12-(furan-3-yl)-9-oxo-4,9-dihydro-5H-furo[2,3-f]pyrido[2,1-a]isoquinoline-8-carboxylic acid] | > 25000 | < 100
4 | Cn1nccc1-c1cc2c(c3ccoc13)C[C@@H](C(C)(C)C)n1cc(C(=O)O)c(=O)cc1-2 [Example 4, (S)-5-(tert-butyl)-12-(1-methyl-1H-pyrazol-5-yl)-9-oxo-4,9-dihydro-5H-furo[3,2-f]pyrido[2,1-a]isoquinoline-8-carboxylic acid] |  | < 100
5 | Cn1cc(-c2cc3c(c4ccoc24)C[C@@H](C(C)(C)C)n2cc(C(=O)O)c(=O)cc2-3)cn1 [Example 5, (S)-5-(tert-butyl)-12-(1-methyl-1H-pyrazol-4-yl)-9-oxo-4,9-dihydro-5H-furo[3,2-f]pyrido[2,1-a]isoquinoline-8-carboxylic acid] | > 25000 | > 1000
6 | CC(C)(C)[C@@H]1Cc2c(cc(-c3ccn[nH]3)c3ccoc23)-c2cc(=O)c(C(=O)O)cn21 [Example 6, (S)-5-(tert-butyl)-9-oxo-12-(1H-pyrazol-5-yl)-4,9-dihydro-5H-furo[2,3-f]pyrido[2,1-a]isoquinoline-8-carboxylic acid] | 10000 to 25000 | < 100
7 | CC(C)(C)[C@@H]1Cc2c(cc(-c3ccsc3)c3ccoc23)-c2cc(=O)c(C(=O)O)cn21 [Example 7, (S)-5-(tert-butyl)-9-oxo-12-(thiophen-3-yl)-4,9-dihydro-5H-furo[2,3-f]pyrido[2,1-a]isoquinoline-8-carboxylic acid] | 10000 to 25000 | < 100
8 | CC(C)(C)[C@@H]1Cc2c(cc(-c3ccco3)c3ccoc23)-c2cc(=O)c(C(=O)O)cn21 [Example 8, (S)-5-(tert-butyl)-12-(furan-2-yl)-9-oxo-4,9-dihydro-5H-furo[2,3-f]pyrido[2,1-a]isoquinoline-8-carboxylic acid] | > 25000 | < 100
9 | CC(C)(C)[C@@H]1Cc2c(cc(-c3cn[nH]c3)c3ccoc23)-c2cc(=O)c(C(=O)O)cn21 [Example 9, (S)-5-(tert-butyl)-9-oxo-12-(1H-pyrazol-4-yl)-4,9-dihydro-5H-furo[2,3-f]pyrido[2,1-a]isoquinoline-8-carboxylic acid] | > 25000 | < 100
10 | CC(C)(C)[C@@H]1Cc2c(cc(-c3cccs3)c3ccoc23)-c2cc(=O)c(C(=O)O)cn21 [Example 10, (S)-5-(tert-butyl)-9-oxo-12-(thiophen-2-yl)-4,9-dihydro-5H-furo[2,3-f]pyrido[2,1-a]isoquinoline-8-carboxylic acid] | 10000 to 25000 | < 100
11 | CC(C)(C)[C@@H]1Cc2c(cc(N3CCC(F)(F)C3)c3occc23)-c2cc(=O)c(C(=O)O)cn21 [Example 20, (S)-5-(tert-butyl)-12-(3,3-difluoropyrrolidin-1-yl)-9-oxo-4,9-dihydro-5H-furo[3,2-f]pyrido[2,1-a]isoquinoline-8-carboxylic acid] |  | 100 to 1000
12 | CC(C)(C)[C@@H]1Cc2c(cc(N3CCCC3)c3occc23)-c2cc(=O)c(C(=O)O)cn21 [Example 21, (S)-5-(tert-butyl)-9-oxo-12-(pyrrolidin-1-yl)-4,9-dihydro-5H-furo[3,2-f]pyrido[2,1-a]isoquinoline-8-carboxylic acid] |  | 100 to 1000
13 | CC(C)(C)[C@@H]1Cc2c(cc(-c3cnco3)c3occc23)-c2cc(=O)c(C(=O)O)cn21 [Example 22, (S)-5-(tert-butyl)-12-(oxazol-5-yl)-9-oxo-4,9-dihydro-5H-furo[3,2-f]pyrido[2,1-a]isoquinoline-8-carboxylic acid] |  | 100 to 1000
14 | Cn1ccc(-c2cc3c(c4ccoc24)C[C@@H](C(C)(C)C)n2cc(C(=O)O)c(=O)cc2-3)n1 [Example 23, (S)-5-(tert-butyl)-12-(1-methyl-1H-pyrazol-3-yl)-9-oxo-4,9-dihydro-5H-furo[3,2-f]pyrido[2,1-a]isoquinoline-8-carboxylic acid] |  | > 1000
15 | CC(C)(C)[C@@H]1Cc2c(cc(-c3cccs3)c3occc23)-c2cc(=O)c(C(=O)O)cn21 [Example 24, (S)-5-(tert-butyl)-9-oxo-12-(thiophen-2-yl)-4,9-dihydro-5H-furo[3,2-f]pyrido[2,1-a]isoquinoline-8-carboxylic acid] |  | > 1000
16 | CC(C)(C)[C@@H]1Cc2c(cc(-c3ccsc3)c3occc23)-c2cc(=O)c(C(=O)O)cn21 [Example 25, (S)-5-(tert-butyl)-9-oxo-12-(thiophen-3-yl)-4,9-dihydro-5H-furo[3,2-f]pyrido[2,1-a]isoquinoline-8-carboxylic acid] |  | > 1000
17 | CC(C)(C)[C@@H]1Cc2c(cc(-c3ccco3)c3occc23)-c2cc(=O)c(C(=O)O)cn21 [Example 26, (S)-5-(tert-butyl)-12-(furan-2-yl)-9-oxo-4,9-dihydro-5H-furo[3,2-f]pyrido[2,1-a]isoquinoline-8-carboxylic acid] |  | > 1000
18 | CC(C)(C)[C@@H]1Cc2c(cc(-c3cn[nH]c3)c3occc23)-c2cc(=O)c(C(=O)O)cn21 [Example 27, (S)-5-(tert-butyl)-9-oxo-12-(1H-pyrazol-4-yl)-4,9-dihydro-5H-furo[3,2-f]pyrido[2,1-a]isoquinoline-8-carboxylic acid] |  | > 1000
19 | CC(C)(C)[C@@H]1Cc2c(cc(-c3ccn[nH]3)c3occc23)-c2cc(=O)c(C(=O)O)cn21 [Example 28, (S)-5-(tert-butyl)-9-oxo-12-(1H-pyrazol-5-yl)-4,9-dihydro-5H-furo[3,2-f]pyrido[2,1-a]isoquinoline-8-carboxylic acid] |  | > 1000
20 | CC(C)(C)[C@@H]1Cc2c(cc(-c3cnsc3)c3occc23)-c2cc(=O)c(C(=O)O)cn21 [Example 29, (S)-5-(tert-butyl)-12-(isothiazol-4-yl)-9-oxo-4,9-dihydro-5H-furo[3,2-f]pyrido[2,1-a]isoquinoline-8-carboxylic acid] |  | > 1000
21 | CC(C)(C)[C@@H]1Cc2c(cc(-c3cscn3)c3occc23)-c2cc(=O)c(C(=O)O)cn21 [Example 30, (S)-5-(tert-butyl)-9-oxo-12-(thiazol-4-yl)-4,9-dihydro-5H-furo[3,2-f]pyrido[2,1-a]isoquinoline-8-carboxylic acid] |  | > 1000
22 | CC(C)(C)[C@@H]1Cc2c(ccc3occc23)-c2cc(=O)c(C(=O)O)cn21 [Example 31, (S)-5-(tert-butyl)-9-oxo-4,9-dihydro-11-furo[3,2-f]pyrido[2,1-a]isoquinoline-8-carboxylic acid] |  | > 1000
